# ChEMBL document CHEMBL1201862, “PubChem BioAssay data set” (2004)
#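 How tested: cells in 96-well plates exposed to compound for 48 hours at five concentrations. GI50 marks 50% less growth.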 Active and inactive are the calls of the source. Rule as the data show it: active = GI50 up to about 1.1 µM and inactive = higher.
# Columns and labels:
# Experiment in all cases: DTP human tumour cell line panel, 48 h
# [1] = tested on: 786-0
# [2] = tested on: A498
# [3] = tested on: A549
# [4] = tested on: ACHN
# [5] = tested on: BT-549
# [6] = tested on: CAKI-1
# [7] = tested on: CCRF-CEM
# [8] = tested on: COLO 205
# [9] = tested on: DMS-114
# [10] = tested on: DMS-273
# [11] = tested on: DU-145
# [12] = tested on: EKVX
# [13] = tested on: HCC 2998
# [14] = tested on: HCT-116
# [15] = tested on: HCT-15
# [16] = tested on: HL-60
# [17] = tested on: HOP-18
# [18] = tested on: HOP-62
# [19] = tested on: HOP-92
# [20] = tested on: HT-29
# [21] = tested on: Hs-578T
# [22] = tested on: IGROV-1
# [23] = tested on: K562
# [24] = tested on: KM-20L2
# [25] = tested on: KM12
# [26] = tested on: LOX IMVI
# [27] = tested on: LXFL 529
# [28] = tested on: M14
# [29] = tested on: M19-MEL
# [30] = tested on: MCF7
# [31] = tested on: MDA-MB-231
# [32] = tested on: MDA-MB-435
# [33] = tested on: MDA-N
# [34] = tested on: MOLT-4
# [35] = tested on: Malme-3M
# [36] = tested on: NCI-H226
# [37] = tested on: NCI-H23
# [38] = tested on: NCI-H460
# [39] = tested on: NCI-H522
# [40] = tested on: NCI/ADR-RES
# [41] = tested on: OVCAR-3
# [42] = tested on: OVCAR-4
# [43] = tested on: OVCAR-5
# [44] = tested on: OVCAR-8
# [45] = tested on: PC-3
# [46] = tested on: RPMI-8226
# [47] = tested on: SF-268
# [48] = tested on: SF-295
# [49] = tested on: SF-539
# [50] = tested on: SK-MEL-28
# [51] = tested on: SK-MEL-2
# [52] = tested on: SK-MEL-5
# [53] = tested on: SK-OV-3
# [54] = tested on: SN12C
# [55] = tested on: SNB-19
# [56] = tested on: SNB-75
# [57] = tested on: SNB-78
# [58] = tested on: SR
# [59] = tested on: SW-620
# [60] = tested on: T47D
# [61] = tested on: TK-10
# [62] = tested on: U-251
# [63] = tested on: UACC-257
# [64] = tested on: UACC-62
# [65] = tested on: UO-31
# [66] = tested on: XF498
# [67] = tested on: DLD-1
# [68] = tested on: RXF 393
smiles,measurement,setting,value
COc1ccc2nc3ccccc3c(NCCCCCN(CCCl)CCCl)c2c1,GI50,[1],21.8 nM (active)
same,GI50,[2],206 nM (active)
same,GI50,[3],< 30.8 nM (active)
same,GI50,[4],26.6 nM (active)
same,GI50,[5],643 nM (active)
same,GI50,[6],54.2 nM (active)
same,GI50,[7],15.1 nM (active)
same,GI50,[8],< 30.1 nM (active)
same,GI50,[9],73 nM (active)
same,GI50,[10],< 36.5 nM (active)
same,GI50,[11],192 nM (active)
same,GI50,[12],485 nM (active)
same,GI50,[13],108 nM (active)
same,GI50,[14],29.5 nM (active)
same,GI50,[15],61.9 nM
same,GI50,[16],< 15.7 nM (active)
same,GI50,[17],306 nM (active)
same,GI50,[18],77.6 nM (active)
same,GI50,[19],40 nM (active)
same,GI50,[20],35.4 nM (active)
same,GI50,[21],358 nM (active)
same,GI50,[22],177 nM (active)
same,GI50,[23],22.9 nM (active)
same,GI50,[24],64.7 nM (active)
same,GI50,[25],93.3 nM (active)
same,GI50,[26],29.4 nM (active)
same,GI50,[27],112 nM (active)
same,GI50,[28],58.1 nM (active)
same,GI50,[29],116 nM (active)
same,GI50,[30],< 10 nM (active)
same,GI50,[31],257 nM (active)
same,GI50,[32],170 nM (active)
same,GI50,[33],121 nM (active)
same,GI50,[34],16.5 nM (active)
same,GI50,[35],524 nM (active)
same,GI50,[36],101 nM (active)
same,GI50,[37],86.3 nM (active)
same,GI50,[38],< 10 nM (active)
same,GI50,[39],26.7 nM (active)
same,GI50,[40],39.9 nM (active)
same,GI50,[41],67.5 nM (active)
same,GI50,[42],65.8 nM (active)
same,GI50,[43],207 nM (active)
same,GI50,[44],27.4 nM (active)
same,GI50,[45],46.9 nM (active)
same,GI50,[46],31.7 nM (active)
same,GI50,[47],38.3 nM (active)
same,GI50,[48],25.5 nM (active)
same,GI50,[49],78.7 nM (active)
same,GI50,[50],214 nM (active)
same,GI50,[51],194 nM (active)
same,GI50,[52],119 nM (active)
same,GI50,[53],192 nM (active)
same,GI50,[54],28.3 nM (active)
same,GI50,[55],42.7 nM (active)
same,GI50,[56],46.2 nM (active)
same,GI50,[57],277 nM (active)
same,GI50,[58],< 10 nM (active)
same,GI50,[59],22.7 nM (active)
same,GI50,[60],< 10 nM (active)
same,GI50,[61],381 nM (active)
same,GI50,[62],31.8 nM (active)
same,GI50,[63],1030 nM (active)
same,GI50,[64],36 nM (active)
same,GI50,[65],70.5 nM (active)
same,GI50,[66],51 nM (active)
COc1ccc(-c2nc3ccc([N+](=O)[O-])cc3c(=O)[nH]2)cc1,GI50,[2],29300 nM (inactive)
same,GI50,[3],53200 nM (inactive)
same,GI50,[6],28800 nM (inactive)
same,GI50,[7],> 100000 nM (inactive)
same,GI50,[8],> 100000 nM (inactive)
same,GI50,[67],88300 nM (inactive)
same,GI50,[9],33000 nM (inactive)
same,GI50,[10],48400 nM (inactive)
same,GI50,[12],66100 nM (inactive)
same,GI50,[13],> 100000 nM (inactive)
same,GI50,[14],27400 nM (inactive)
same,GI50,[15],> 100000 nM
same,GI50,[16],> 100000 nM (inactive)
same,GI50,[17],> 62400 nM (inactive)
same,GI50,[18],> 45600 nM (inactive)
same,GI50,[19],22000 nM (inactive)
same,GI50,[20],> 100000 nM (inactive)
same,GI50,[22],25100 nM (inactive)
same,GI50,[23],> 100000 nM (inactive)
same,GI50,[24],> 100000 nM (inactive)
same,GI50,[25],> 100000 nM (inactive)
same,GI50,[26],30500 nM (inactive)
same,GI50,[29],> 100000 nM (inactive)
same,GI50,[30],46500 nM (inactive)
same,GI50,[34],> 100000 nM (inactive)
same,GI50,[36],23200 nM (inactive)
same,GI50,[37],29300 nM (inactive)
same,GI50,[38],> 80000 nM (inactive)
same,GI50,[39],26900 nM (inactive)
same,GI50,[40],34000 nM (inactive)
same,GI50,[41],28400 nM (inactive)
same,GI50,[42],12900 nM (inactive)
same,GI50,[43],> 100000 nM (inactive)
same,GI50,[44],21100 nM (inactive)
same,GI50,[46],> 61400 nM (inactive)
same,GI50,[68],26400 nM (inactive)
same,GI50,[47],20400 nM (inactive)
same,GI50,[48],23800 nM (inactive)
same,GI50,[49],14500 nM (inactive)
same,GI50,[50],> 100000 nM (inactive)
same,GI50,[51],30300 nM (inactive)
same,GI50,[52],> 100000 nM (inactive)
same,GI50,[53],13600 nM (inactive)
same,GI50,[54],66400 nM (inactive)
same,GI50,[55],20400 nM (inactive)
same,GI50,[56],12700 nM (inactive)
same,GI50,[57],19900 nM (inactive)
same,GI50,[59],> 100000 nM (inactive)
same,GI50,[62],24600 nM (inactive)
same,GI50,[63],> 96200 nM (inactive)
same,GI50,[64],37700 nM (inactive)
same,GI50,[65],61900 nM (inactive)
same,GI50,[66],22700 nM (inactive)
